Drawing on US8835440B2, “Cyclic pyrimidin-4-carboxamides as CCR2 receptor antagonists for treatment of inflammation, asthma and COPD” (Boehringer Ingelheim International GmbH, priority 2008, dated 2014), this text covers remaining activity and Ki for 43 compounds.

This assay concerns the target T1, CCR2 (Homo sapiens, UniProt P41597).
T1 construct: Membranes were prepared from THP-1 cells; endogenous in cells; host or cells: THP-1 cells (membrane preparation)
T1 sequence (P41597 1-360 isoform P41597-2): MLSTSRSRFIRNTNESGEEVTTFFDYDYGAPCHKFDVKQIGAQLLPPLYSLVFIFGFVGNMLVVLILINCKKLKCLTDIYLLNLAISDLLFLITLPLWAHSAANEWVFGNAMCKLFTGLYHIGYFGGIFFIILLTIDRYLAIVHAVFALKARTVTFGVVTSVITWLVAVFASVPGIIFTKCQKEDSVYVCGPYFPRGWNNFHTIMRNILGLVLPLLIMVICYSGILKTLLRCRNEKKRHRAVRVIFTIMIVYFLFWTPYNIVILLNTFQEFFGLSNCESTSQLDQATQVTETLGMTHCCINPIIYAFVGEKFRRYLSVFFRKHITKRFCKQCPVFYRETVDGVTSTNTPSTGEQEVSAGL
Kind of assay: CCR2 receptor membrane binding assay ([125I]MCP-1, THP-1 cell membranes, SPA beads). The settings on record: for remaining activity at 10 µM: @ 10 μM test compound, THP-1 membranes, read-out: CCR2 % ctrl @ 10 μM; for Ki: dissociation constant hKi, [125I]MCP-1 binding to THP-1 membranes. The method, boiled down: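 hKi was derived by iterative law-of-mass-action fitting of scintillation counts read at 8 h. Compound (1% DMSO final) competed with ca. 25000 cpm [125I]MCP-1 for THP-1 membranes bound to WGA-PVT beads. Buffer: 25 mM HEPES pH 7.2, 5 mM MgCl2, 0.5 mM CaCl2, 0.2% BSA.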

As to `Cc1c(NCc2ccc(C(C)(C)C)cc2)ncnc1C(=O)N1CCC(N2CCC(NS(=O)(=O)C(C)C)CC2)CC1` [Example 205], the remaining activity at 10 µM is 11% and the inhibition constant Ki amounted to 135 nM.
In the case of `Cc1c(NCc2ccc(C(C)(C)C)cc2)ncnc1C(=O)N1CCC(N2CC(NS(C)(=O)=O)C2)CC1` [Example 223], the remaining activity at 10 µM was 14% and the inhibition constant Ki stood at 244 nM.
For the compound `Cc1c(NCc2cccc(-c3ccccc3)c2)ncnc1C(=O)N1CCC(N2CCCC(O)C2)CC1` (centres unmarked) [Example 100], the remaining activity at 10 µM worked out at 18% and affinity was put at a Ki of 395 nM.
As for `Cc1c(NCc2ccc(Cl)c(Cl)c2)ncnc1C(=O)N1CCC(N2CC[C@H](N(C)S(C)(=O)=O)C2)CC1` [Example 226], the remaining activity at 10 µM turned out to be 36% and the affinity, expressed as Ki, was 1170 nM.
On the same counts, the results for `Cc1c(NCC2CCN(c3ccccc3)C2)ncnc1C(=O)N1CCC(N2CCC(O)CC2)CC1` (centres unmarked) [Example 20] are 24% and 303 nM.
The corresponding values for `CCC(C)NC(=O)C1CCN(C2CCN(C(=O)c3ncnc(NCc4ccc(C(C)(C)C)cc4)c3C)CC2)CC1` (centres unmarked) [Example 211] are 5% and 140 nM.
On to `Cc1c(NCC2CCCc3ccccc32)ncnc1C(=O)N1CCC(N2CCC(N(C)S(C)(=O)=O)CC2)CC1` (centres unmarked) [Example 148], for which the remaining activity at 10 µM turned out to be 4% and the Ki amounted to 119 nM.
Regarding `Cc1c(NC[C@H]2CC[C@H](c3ccc(Cl)cc3)O2)ncnc1C(=O)N1CCC(N2CCC(N(C)S(C)(=O)=O)CC2)CC1` [Example 159wa], the inhibition constant (Ki) is 33 nM.
Regarding `CNC(=O)[C@@H]1CCN(C2CCN(C(=O)c3ncnc(NCc4ccc(C(F)(F)F)c(Cl)c4)c3C)CC2)C1` [Example 77], the remaining activity at 10 µM amounted to 27% and the inhibition constant (Ki) is 650 nM.
The corresponding values for `Cc1c(NCCc2ccc(Cl)c(Cl)c2)ncnc1C(=O)N1CCC(N2CC[C@@H](O)C2)CC1` [Example 165] are 15% and 222 nM.
`C#Cc1c(NC[C@H]2CCC[C@@H](c3ccccc3)C2)ncnc1C(=O)N1CCC(N2CCC(N(C)S(C)(=O)=O)CC2)CC1` [Example 275dl]: the affinity corresponds to a Ki of 372 nM.
Consider `COC1CCN(C2CCN(C(=O)c3ncnc(NCC4CCCN(c5ccccc5)C4)c3C)CC2)CC1` (centres unmarked) [Example 97], for which the remaining activity at 10 µM turned out to be 17% and the affinity corresponds to a Ki of 665 nM.
With `Cc1cc(CNc2ncnc(C(=O)N3CCC(N4CCC(O)CC4)CC3)c2C)ccc1F` [Example 118], the remaining activity at 10 µM was determined as 41% and the Ki turned out to be 2160 nM.
In the case of `Cc1c(NCC2Cc3ccccc3C2)ncnc1C(=O)N1CCC(N2CCC(NS(C)(=O)=O)CC2)CC1` [Example 73], the remaining activity at 10 µM is 2% and affinity was put at a Ki of 38 nM.
Consider `Cc1cccc([C@H]2CC[C@H](CNc3nc(C)nc(C(=O)N4CCC(N5CCC(N(C)S(C)(=O)=O)CC5)CC4)c3C)O2)c1` [Example 159ja], for which the Ki amounted to 18 nM. This lies in the double-digit nanomolar range.
With `Cc1c(NCC2CCCCC2)ncnc1C(=O)N1CCC(N2CCC(N(C)S(C)(=O)=O)CC2)CC1` [Example 159e], the inhibition constant Ki turned out to be 28 nM.
As to `CCS(=O)(=O)NC1CCN(C2CCN(C(=O)c3ncnc(NCc4ccc(C(C)(C)C)cc4)c3C)CC2)CC1` [Example 264], the remaining activity at 10 µM was 3% and the inhibition constant (Ki) stood at 41 nM.
As to `Cc1nc(NC2CCCC(c3ccccc3)C2)c(C)c(C(=O)N2CCC(N3CCC(NS(C)(=O)=O)CC3)CC2)n1` (centres unmarked) [Example 89], the remaining activity at 10 µM came out at 29% and the affinity corresponds to a Ki of 770 nM.
Turning to `CNC(=O)C1CCN(C2CCN(C(=O)c3ncnc(NCC4CCCC(c5ccc(F)cc5)C4)c3C)CC2)CC1` (centres unmarked) [Example 159aa], affinity was put at a Ki of 18 nM.
Consider `Cc1c(NCCc2ccc(OC(F)(F)F)cc2)ncnc1C(=O)N1CCC(N2CCC(NS(C)(=O)=O)CC2)CC1` [Example 70], for which the remaining activity at 10 µM was found to be 6% and the Ki is 80 nM.
The corresponding values for `Cc1nc(NCC2COc3ccccc3C2)c(C)c(C(=O)N2CCC(N3CCC(N(C)S(C)(=O)=O)CC3)CC2)n1` (centres unmarked) [Example 79] are 10% and 89 nM.
The corresponding values for `Cc1c(NCCc2ccc(C(C)(C)C)cc2)ncnc1C(=O)N1CCC(N2CCCCC2)CC1` [Example 129] are 21% and 336 nM.
As for `Cc1c(NCC2CCC(c3ccccc3)CC2)ncnc1C(=O)N1CCC(N2CCC(O)CC2)CC1` (centres unmarked) [Example 121], the remaining activity at 10 µM was 15% and the Ki worked out at 147 nM.
In the case of `Cc1nc(NC[C@H]2CCN(c3ccccc3)C2)c(C)c(C(=O)N2CCC(N3CCC(N(C)S(C)(=O)=O)CC3)CC2)n1` [Example 159], the remaining activity at 10 µM is 4% and the Ki is 25 nM.
In the case of `Cc1c(NCCc2ccc(Cl)c(Cl)c2)ncnc1C(=O)N1CCC(N2CCOC(c3ccccc3)C2)CC1` (centres unmarked) [Example 240], the remaining activity at 10 µM worked out at 7% and the affinity corresponds to a Ki of 104 nM.
Take `COC1CN(C(=O)c2ncnc(NCc3ccc(C(C)(C)C)cc3)c2C)CCC1N1CCC(N(C)S(C)(=O)=O)CC1` (centres unmarked) [Example 263]: the remaining activity at 10 µM is 27% and the affinity corresponds to a Ki of 1970 nM.
As to `Cc1c(OCc2ccc(C(C)(C)C)cc2)ncnc1C(=O)N1CCC(N2CCOCC2)CC1` [Example 298], the remaining activity at 10 µM worked out at 17% and the Ki is 599 nM.
Regarding `Cc1c(NCc2ccc(Cl)cc2)ncnc1C(=O)N1CCC(N2CCC(N(C)S(C)(=O)=O)CC2)CC1` [Example 49], the remaining activity at 10 µM was 7% and the Ki was found to be 97 nM.
The corresponding values for `Cc1ccc(CNc2ncnc(C(=O)N3CCC(N4CCOCC4)CC3)c2C)cc1F` [Example 44] are 27% and 1640 nM.
Consider `Cc1c(NC[C@@H]2CC[C@H](c3ccc(C(F)(F)F)cc3)O2)ncnc1C(=O)N1CCC(N2CCC(N(C)S(C)(=O)=O)CC2)CC1` [Example 159la], for which the affinity, expressed as Ki, was 19 nM.
Turning to `Cc1nc(NC[C@@H]2CCN(c3ccccc3)C2)c(C)c(C(=O)N2CCC(N3CCC(N(C)S(C)(=O)=O)CC3)CC2)n1` [Example 85], the remaining activity at 10 µM was found to be 13% and the affinity corresponds to a Ki of 55 nM.
In the case of `Cc1c(Oc2ccc(C(C)(C)C)cc2)ncnc1C(=O)N1CCC(N2CCC(N(C)S(C)(=O)=O)CC2)CC1` [Example 291], the remaining activity at 10 µM was 32% and affinity was put at a Ki of 3120 nM.
`Cc1c(NCc2ccc(Cl)c(Cl)c2)ncnc1C(=O)N1CCC(N2CC[C@@H](NS(C)(=O)=O)C2)CC1` [Example 259]: the remaining activity at 10 µM is 16% and the Ki was determined as 277 nM.
The corresponding values for `COC1COCCC1N(C)C1CCN(C(=O)c2ncnc(NCC3CCC[C@@H](c4ccccc4)C3)c2C)CC1` (some centres unmarked) [Example 228h] are 0% and 5 nM.
As for `Cc1c(NCc2ccc(Cl)c(Cl)c2)ncnc1C(=O)N1CCC(N2CCC(NS(=O)(=O)C(C)C)CC2)CC1` [Example 197], the remaining activity at 10 µM was 4% and affinity was put at a Ki of 33 nM.
For the compound `CNC(=O)C1CCN(C2CCN(C(=O)c3ncnc(OCc4ccc(C(C)(C)C)cc4)c3C)CC2)CC1` [Example 300], the remaining activity at 10 µM was determined as 8% and the inhibition constant Ki turned out to be 136 nM.
For `Cc1c(NCc2ccc(C(C)(C)C)cc2)ncnc1C(=O)N1CCCC(N2CCOCC2)CC1` (centres unmarked) [Example 162], the remaining activity at 10 µM was 43% and affinity was put at a Ki of 3800 nM.
On to `Cc1c(NCc2ccc(Cl)c(Cl)c2)ncnc1C(=O)N1CCC(N2CCCC(O)CC2)CC1` (centres unmarked) [Example 245], for which the remaining activity at 10 µM is 15% and the affinity corresponds to a Ki of 555 nM.
On the same counts, the results for `Cc1c(NCC2CCCN(c3ccccc3)C2)ncnc1C(=O)N1CCC(N2CCC(N(C)S(C)(=O)=O)CC2)CC1` (centres unmarked) [Example 155] are 8% and 76 nM.
Consider `Cc1c(NCC2CCN(c3ccccc3)C2)ncnc1C(=O)N1CCC(N2CCC(NS(C)(=O)=O)CC2)CC1` (centres unmarked) [Example 74], for which the remaining activity at 10 µM came to 2% and affinity was put at a Ki of 71 nM.
Regarding `Cc1c(NC[C@@H]2CCC[C@@H](c3ccccc3)C2)ncnc1C(=O)N1CCC(N2CCC(N(C)S(C)(=O)=O)CC2)CC1` [Example 158], the remaining activity at 10 µM is 0% and the Ki was found to be 6 nM.
For the compound `Cc1nc(NCc2ccc(Cl)c(Cl)c2)c(C)c(C(=O)N2CCC(N3CCC(O)CC3)CC2)n1` [Example 92], the remaining activity at 10 µM amounted to 14% and the affinity, expressed as Ki, was 175 nM.
Turning to `Cc1c(NCCc2ccc(Cl)c(Cl)c2)ncnc1C(=O)N1CCC(N2CCN(C(=O)C(C)C)CC2)CC1` [Example 284], the remaining activity at 10 µM came to 42% and the Ki worked out at 1510 nM.

For orientation: Ki means the dissociation constant of the complex between target and ligand, obtained from inhibition or displacement.
